Experimental data reported in patent US8450317B2, “CXCR3 receptor antagonists” (Boehringer Ingelheim International GmbH, priority 2009, dated 2013).
pIC50: −log10 of the molar value.

Target: CXCR3 (Macaca fascicularis, UniProt A0A2K5UV19)
Test: functional cellular assay measuring calcium flux in CXCR3 transfected cells (block of CXCR3/IP-10 interaction)
Type: cell-based, Cyno
Conditions: IP-10 induced intracellular calcium flux; Cyno-CHO cells stably expressing recombinant CXCR3 and G-alpha-16; IP-10 at EC80; read-out: IC50
Summary of the method: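 Cyno-CHO cells stably expressing CXCR3 and G-alpha-16, loaded with Ca-4 dye in HBSS/10 mM HEPES pH 7.4 with 2 mM probenecid for 1 h at 37° C. Compound (final 10 microM) preincubated 15 min at room temperature, then IP-10 at EC80 added; calcium flux read at 480/540 nm.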

Sequence of CXCR3 (A0A2K5UV19 entry or part of it): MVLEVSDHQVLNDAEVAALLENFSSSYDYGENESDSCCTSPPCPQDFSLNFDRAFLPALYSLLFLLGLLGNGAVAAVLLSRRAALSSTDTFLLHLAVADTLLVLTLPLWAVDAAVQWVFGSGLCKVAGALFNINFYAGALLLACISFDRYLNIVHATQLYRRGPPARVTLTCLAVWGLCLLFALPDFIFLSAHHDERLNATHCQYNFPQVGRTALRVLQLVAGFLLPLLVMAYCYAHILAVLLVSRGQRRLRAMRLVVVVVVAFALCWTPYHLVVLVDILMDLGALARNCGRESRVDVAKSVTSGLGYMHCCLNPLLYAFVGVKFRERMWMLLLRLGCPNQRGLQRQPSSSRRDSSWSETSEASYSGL

| pIC50 | SMILES |
| --- | --- |
| 8.05 | CC1CN(c2ccc(C(F)(F)F)cc2-c2cnc(N3CCC(O)CC3)nc2)CCN1C(=O)CN1Cc2ccccc2C1=O (stereo not drawn) [2-[2-(4-{2-[2-(4-hydroxypiperidin-1-yl)pyrimidin-5-yl]-4-(trifluoromethyl)phenyl}-2-methylpiperazin-1-yl)-2-oxoethyl]-2,3-dihydro-1H-isoindol-1-one] |
| 8.00 | CC1CN(c2ccccc2-c2cnc(N3CCC(O)CC3)nc2)CCN1C(=O)CN1Cc2ccccc2C1=O (stereo not drawn) [2-[2-(4-{2-[2-(4-hydroxypiperidin-1-yl)pyrimidin-5-yl]phenyl}-2-methylpiperazin-1-yl)-2-oxoethyl]-2,3-dihydro-1H-isoindol-1-one] |
| 8.05 | O=C(CN1Cc2ccccc2C1=O)N1CCN(c2ccc(F)cc2-c2cnc(N3CCC(O)CC3)nc2)CC1 [2-[2-(4-{4-fluoro-2-[2-(4-hydroxypiperidin-1-yl)pyrimidin-5-yl]phenyl}piperazin-1-yl)-2-oxoethyl]-2,3-dihydro-1H-isoindol-1-one] |
| 7.59 | CN1CCN(c2ncc(-c3cc(F)ccc3N3CCN(C(=O)CN4Cc5ccccc5C4=O)CC3)cn2)CC1 [2-[2-(4-{4-fluoro-2-[2-(4-methylpiperazin-1-yl)pyrimidin-5-yl]phenyl}piperazin-1-yl)-2-oxoethyl]-2,3-dihydro-1H-isoindol-1-one] |
| 6.61 | CC1CN(c2ccc(F)cc2-c2cnc(S(C)(=O)=O)nc2)CCN1C(=O)CN1Cc2ccccc2C1=O (stereo not drawn) [2-[2-(4-{4-fluoro-2-[2-(methylsulfonyl)pyrimidin-5-yl]phenyl}-2-methylpiperazin-1-yl)-2-oxoethyl]-2,3-dihydro-1H-isoindol-1-one] |
| 6.60 | CS(=O)(=O)c1ncc(-c2cc(F)ccc2N2CCN(C(=O)CN3Cc4ccccc4C3=O)CC2)cn1 [2-[2-(4-{4-fluoro-2-[2-(methylsulfonyl)pyrimidin-5-yl]phenyl}piperazin-1-yl)-2-oxoethyl]-2,3-dihydro-1H-isoindol-1-one] |
| 7.64 | O=C(CN1Cc2ccccc2C1=O)N1CCN(c2ccc(F)cc2-c2cnc(N3CCOCC3)nc2)CC1 [2-[2-(4-{4-fluoro-2-[2-(morpholin-4-yl)pyrimidin-5-yl]phenyl}piperazin-1-yl)-2-oxoethyl]-2,3-dihydro-1H-isoindol-1-one] |
| 7.82 | O=C(CN1Cc2ccccc2C1=O)N1CCN(c2ccc(F)cc2-c2cnc(N3CCCC3)nc2)CC1 [2-[2-(4-{4-fluoro-2-[2-(pyrrolidin-1-yl)pyrimidin-5-yl]phenyl}piperazin-1-yl)-2-oxoethyl]-2,3-dihydro-1H-isoindol-1-one] |
| 7.32 | O=C(Cn1ccc2cccnc21)N1CCN(c2ccccc2N2Cc3ccccc3C2=O)CC1 [2-{2-[4-(2-Pyrrolo[2,3-b]pyridin-1-yl-acetyl)-piperazin-1-yl]-phenyl}-2,3-dihydro-isoindol-1-one] |
| 8.00 | CC1CN(c2ccc(F)cc2-c2cnc(N3CCC(S(C)(=O)=O)CC3)nc2)CCN1C(=O)CN1Cc2ccccc2C1=O (stereo not drawn) [2-{2-[4-(4-fluoro-2-{2-[4-(methylsulfonyl)piperidin-1-yl]pyrimidin-5-yl}phenyl)-2-methylpiperazin-1-yl]-2-oxoethyl}-2,3-dihydro-1H-isoindol-1-one] |
| 8.05 | CS(=O)(=O)C1CCN(c2ncc(-c3cc(F)ccc3N3CCN(C(=O)CN4Cc5ccccc5C4=O)CC3)cn2)CC1 [2-{2-[4-(4-fluoro-2-{2-[4-(methylsulfonyl)piperidin-1-yl]pyrimidin-5-yl}phenyl)piperazin-1-yl]-2-oxoethyl}-2,3-dihydro-1H-isoindol-1-one] |
| 8.10 | COc1cc(NC(=O)c2cc(F)ccc2N2CCN(C(=O)Cn3nc(C)cc3C)[C@H](C)C2)ccn1 [2-{(3R)-4-[(3,5-dimethyl-1H-pyrazol-1-yl)acetyl]-3-methylpiperazin-1-yl}-5-fluoro-N-(2-methoxypyridin-4-yl)benzamide] |
| 7.82 | Cc1cc(C)n(CC(=O)N2CCN(c3ccc(F)cc3C(=O)Nc3nc4c(s3)CN(C)CC4)C[C@H]2C)n1 [2-{(3R)-4-[(3,5-dimethyl-1H-pyrazol-1-yl)acetyl]-3-methylpiperazin-1-yl}-5-fluoro-N-(5-methyl-4,5,6,7-tetrahydro[1,3]thiazolo[5,4-c]pyridin-2-yl)benzamide] |
| 7.92 | COc1cc(NC(=O)c2cc(F)ccc2N2CCN(C(=O)Cn3nc(C)cc3C)[C@@H](C)C2)ccn1 [2-{(3S)-4-[(3,5-dimethyl-1H-pyrazol-1-yl)acetyl]-3-methylpiperazin-1-yl}-5-fluoro-N-(2-methoxypyridin-4-yl)benzamide] |
| 7.92 | Cc1cc(C)n(CC(=O)N2CCN(c3ccc(F)cc3C(=O)Nc3nc4c(s3)CN(C)CC4)C[C@@H]2C)n1 [2-{(3S)-4-[(3,5-dimethyl-1H-pyrazol-1-yl)acetyl]-3-methylpiperazin-1-yl}-5-fluoro-N-(5-methyl-4,5,6,7-tetrahydro[1,3]thiazolo[5,4-c]pyridin-2-yl)benzamide] |
| 7.00 | Cc1cc(C)n(CC(=O)N2CCN(c3ccccc3-c3ccc(C#N)cc3)CC2)n1 [2′-{4-[2-(3,5-Dimethyl-pyrazol-1-yl)-acetyl]-piperazin-1-yl}-biphenyl-4-carbonitrile] |
| 7.17 | COc1ccc(C(=O)NCC(=O)N2CCN(c3ccccc3-c3cnc(N4CCOCC4)nc3)CC2)cc1OC [3,4-Dimethoxy-N-(2-{4-[2-(2-morpholin-4-yl-pyrimidin-5-yl)-phenyl]-piperazin-1-yl}-2-oxo-ethyl)-benzamide] |

| pIC50 | SMILES |
| --- | --- |
| 8.15 | COc1ncc(-c2cc(C#N)ccc2N2CCN(C(=O)Cn3ccc4cccnc43)CC2)cn1 [3-(2-Methoxy-pyrimidin-5-yl)-4-[4-(2-pyrrolo[2,3-b]pyridin-1-yl-acetyl)-piperazin-1-yl]-benzonitrile] |
| 8.10 | CNc1ncc(-c2cc(C#N)ccc2N2CCN(C(=O)Cn3ccc4cccnc43)CC2)cn1 [3-(2-Methylamino-pyrimidin-5-yl)-4-[4-(2-pyrrolo[2,3-b]pyridin-1-yl-acetyl)-piperazin-1-yl]-benzonitrile] |
| 8.40 | CSc1ncc(-c2cc(C#N)ccc2N2CCN(C(=O)Cn3ccc4cccnc43)CC2)cn1 [3-(2-Methylsulfanyl-pyrimidin-5-yl)-4-[4-(2-pyrrolo[2,3-b]pyridin-1-yl-acetyl)-piperazin-1-yl]-benzonitrile] |
| 8.10 | N#Cc1ccc(N2CCN(C(=O)Cn3ccc4cccnc43)CC2)c(-c2cnc(N3CCOCC3)nc2)c1 [3-(2-Morpholin-4-yl-pyrimidin-5-yl)-4-[4-(2-pyrrolo[2,3-b]pyridin-1-yl-acetyl)-piperazin-1-yl]-benzonitrile] |
| 6.82 | COc1ncc(-c2cc(C#N)ccc2N2CCN(C(=O)Cn3nc(C)cc3C)CC2)cn1 [4-{4-[2-(3,5-Dimethyl-pyrazol-1-yl)-acetyl]-piperazin-1-yl}-3-(2-methoxy-pyrimidin-5-yl)-benzonitrile] |
| 7.44 | CSc1ncc(-c2cc(C#N)ccc2N2CCN(C(=O)Cn3nc(C)cc3C)CC2)cn1 [4-{4-[2-(3,5-Dimethyl-pyrazol-1-yl)-acetyl]-piperazin-1-yl}-3-(2-methylsulfanyl-pyrimidin-5-yl)-benzonitrile] |
| 7.74 | Cc1cc(C)n(CC(=O)N2CCN(c3ccc(C#N)cc3-c3cnc(N4CCOCC4)nc3)CC2)n1 [4-{4-[2-(3,5-Dimethyl-pyrazol-1-yl)-acetyl]-piperazin-1-yl}-3-(2-morpholin-4-yl-pyrimidin-5-yl)-benzonitrile] |
| 7.33 | Cc1cn(CC(=O)N2CCN(c3ccccc3-c3ccc(C#N)nc3)CC2)c(C)n1 [5-(2-{4-[2-(2,4-Dimethyl-imidazol-1-yl)-acetyl]-piperazin-1-yl}-phenyl)-pyridine-2-carbonitrile] |
| 7.74 | Cc1cc(C)n(CC(=O)N2CCN(c3ccccc3-c3ccc(C#N)nc3)CC2)n1 [5-(2-{4-[2-(3,5-Dimethyl-pyrazol-1-yl)-acetyl]-piperazin-1-yl}-phenyl)-pyridine-2-carbonitrile] |
| 7.37 | Cc1cc(C)n(CC(=O)N2CCN(c3ccccc3-c3cnc(C#N)nc3)CC2)n1 [5-(2-{4-[2-(3,5-Dimethyl-pyrazol-1-yl)-acetyl]-piperazin-1-yl}-phenyl)-pyrimidine-2-carbonitrile] |
| 7.15 | Cc1cc(C(F)(F)F)nn1CC(=O)N1CCN(c2ccccc2-c2ccc(C#N)nc2)CC1 [5-(2-{4-[2-(5-Methyl-3-trifluoromethyl-pyrazol-1-yl)-acetyl]-piperazin-1-yl}-phenyl)-pyridine-2-carbonitrile] |
| 7.33 | N#Cc1ccc(-c2ccccc2N2CCN(C(=O)CNc3nccs3)CC2)cn1 [5-(2-{4-[2-(Thiazol-2-ylamino)-acetyl]-piperazin-1-yl}-phenyl)-pyridine-2-carbonitrile] |
| 7.70 | C[C@@H]1CN(c2ccc(F)cc2C(=O)Nc2nc3c(s2)CN(C)CC3)CCN1C(=O)Cn1ccc2cccnc21 [5-fluoro-2-[(3R)-3-methyl-4-(1H-pyrrolo[2,3-b]pyridin-1-ylacetyl)piperazin-1-yl]-N-(5-methyl-4,5,6,7-tetrahydro[1,3]thiazolo[5,4-c]pyridin-2-yl)benzamide] |
| 8.15 | COc1cc(NC(=O)c2cc(F)ccc2N2CCN(C(=O)Cn3cnc4cccnc43)[C@H](C)C2)ccn1 [5-fluoro-2-[(3R)-4-(3H-imidazo[4,5-b]pyridin-3-ylacetyl)-3-methylpiperazin-1-yl]-N-(2-methoxypyridin-4-yl)benzamide] |
| 7.82 | C[C@@H]1CN(c2ccc(F)cc2C(=O)Nc2nc3c(s2)CN(C)CC3)CCN1C(=O)Cn1cnc2cccnc21 [5-fluoro-2-[(3R)-4-(3H-imidazo[4,5-b]pyridin-3-ylacetyl)-3-methylpiperazin-1-yl]-N-(5-methyl-4,5,6,7-tetrahydro[1,3]thiazolo[5,4-c]pyridin-2-yl)benzamide] |
| 7.77 | C[C@H]1CN(c2ccc(F)cc2C(=O)Nc2nc3c(s2)CN(C)CC3)CCN1C(=O)Cn1ccc2cccnc21 [5-fluoro-2-[(3S)-3-methyl-4-(1H-pyrrolo[2,3-b]pyridin-1-ylacetyl)piperazin-1-yl]-N-(5-methyl-4,5,6,7-tetrahydro[1,3]thiazolo[5,4-c]pyridin-2-yl)benzamide] |
